Results: US20220062317A1, “NA+/K+ ATPASE INHIBITORS FOR USE IN THE PREVENTION OR TREATMENT OF METASTASIS” (UNIVERSITÄT BASEL, priority 2018, published 2022)

Tests used:
BR16 CTC-derived cells = assay: FDA-approved compound screen for CTC cluster dissociation (high content imaging); format: cell-based, human; conditions: even at lowest concentration tested (0.1 μM), 2 days, hypoxia
Experimental: In order to identify actionable vulnerabilities of CTC clusters, and to test whether the epigenetic and transcriptional features of clustered CTCs are reversible upon cluster dissociation into single cells the following steps were undertaken. First, the expression of all known cell-cell junction (CCJ) components in patient samples obtained from normal breast (TGCA REF), breast cancer (TOGA REF), single CTCs and CTC clusters were assessed (Aceto et al. Cell 2014). While breast cancer cells tend to only partially reduce their CCJ repertoire compared to normal breast cells, CTCs express only a small fraction of CCJ components, likely as a consequence to their increased motility. Yet, CTC clusters retain a higher number of CCJs as compared to single CTCs. […] To this end, 2′486 FDA-approved compounds were evaluated for their ability to dissociate clusters of human breast CTC-derived cells. Cluster dissociation was assessed using a high content screening microscope and comparing cells treated with each individual compound to steady state clustered BR16 cells and 40 μm-filtered BR16 single cell suspension as negative and positive controls, respectively (FIG. 4a). […] For the majority of the 2′486 FDA-approved compounds, when using a 5 μM concentration for 2 days in hypoxic conditions, no detectable reduction in cell viability (>70% viability) nor mean cluster size (>450 μm2) in BR16 CTC-derived cells was observed. […] These compounds include inhibitors of Na^+/K^+ ATPases (n=6), HDACs (n=2), nucleotide biosynthesis (n=5), kinases (n=4), GPCRs (n=2), cholesterol biosynthesis (n=1), nuclear export (n=1), tubulin (n=9), as well as DNA binding compounds (n=8) and antibiotics (n=1).
A library containing 2,486 FDA-approved compounds was purchased from the Nexus Platform ETH Zurich. Each compound was resuspended using CTC medium at a 15 μM concentration and 20 μl were aliquoted in duplicate in a total of 64 Flat Bottom Clear Ultra Low attachment 96-well plates (Corning, Cat #3474).
To reduce cluster size in CTC derived cell lines, a 40 μm cell strainer was used (Corning, Cat #431750). […] Plates were incubated in hypoxia (5% oxygen) for 2 days and then 20 μl were transferred into a 96 well Black/clear Tissue culture treated plate (BD Falcon, Cat #353219) containing 40 μl of D-PBS (Invitrogen, Cat #14190169) and stained for 1 hr at 37° C. with a final concentration of 4 μM Hoechst 34580 (Invitrogen, Cat #H21486), 2 μM TMRM (Invitrogen, Cat #T668) and 4 μM TOTO-3 (Invitrogen, Cat #T3604). For each plate, two positive controls (non-treated cells) and two negative controls (non-treated and […] cells) were included. Z-factors were calculated per individual plate using the following formula: Z′=1−3(σs+σc)/|μs−μc|^3 (σ: standard deviation, μ: mean, s: positive control and c: negative control) (Martin et al., PLoS One 9, e88338, 2014) and ranged between 0.62-0.937. Plates were scanned using Operetta High Content Imaging System (Perkin Elmer) and cluster analysis was performed using Harmony High Content Imaging and Analysis Software (Perkin Elmer).

BR16 xenografts = assay: BR16 xenograft (mammary fat pad), spontaneous CTC clusters and metastasis; format: in vivo, NSG mice; conditions: ouabain daily for three weeks
Experimental: Blood specimens for CTC analysis were obtained from University Hospital Basel after informed patient consent according to protocol EKNZ BASEC 2016-00067 and EK 321/10, which received ethical approval from the Swiss authorities (EKNZ, Ethics Committee northwest/central Switzerland). An average of 7.5 ml of blood per patient was drawn in EDTA vacutainers. Within 1 hr from blood draw, the blood was processed through Parsortix GEN3D6.5 Cell Separation Cassette (Angle Europe). For mouse studies, blood was retrieved via cardiac puncture and 1 ml of blood was similarly processed through a Parsortix device. Captured CTCs were further stained on Parsortix cassette with EpCAM-AF488 conjugated (CellSignaling, Cat #CST5198), HER2-AF488 (#324410, BioLegend), EGFR-FITC conjugated (GeneTex, Cat #GTX11400) and CD45-BV605 conjugated (Biolegend, Cat #304042 (anti-human); Cat #103140 (anti-mouse)) antibodies. For all other models (xenografts), carrying cancer cells stably expressing a GFP-Luciferase reporter, only anti-CD45 staining was performed, while CTCs were identified based on GFP expression. The number of captured CTCs, including single CTCs, CTC clusters and CTC-WBC clusters, was determined while cells were still in the cassette. CTCs were then released from the cassette in DPBS (#14190169, Gibco) onto ultra-low attachment plates (#3471-COR, Corning). Representative pictures were taken at 40× magnification with Leica DM14000 fluorescent microscope using Leica LAS and analyzed with ImageJ.
For tail vein experiments, NOD SCID Gamma (NSG) mice (Jackson Labs) were injected with 1×10^6 BR16-mCherry cells resuspended in 100 μl D-PBS and monitored with IVIS Lumina II (Perkin Elmer). For CTC xenograft mouse model isolation, 1×10^6 LM2-GFP, 1×10^6 BRx50-GFP or 1×10^6 BR16-GFP cells were resuspended in 100 μl of 50% Cultrex PathClear Reduced Growth Factor Basement Membrane Extract (R&D Biosystems, Cat #3533-010-02) in D-PBS and injected orthotopically in NSG mice. Blood draw was performed 4-5 weeks after tumor onset for LM2 cells, 5-6 months after tumor onset for BR16 and 6-7 months after tumor onset for BRx50 cells.

C[C@@H]1O[C@@H](O[C@H]2C[C@@H](O)[C@]3(CO)[C@H]4[C@H](O)C[C@]5(C)[C@@H](C6=CC(=O)OC6)CC[C@]5(O)[C@@H]4CC[C@]3(O)C2)[C@H](O)[C@H](O)[C@H]1O [ouabain, Ouabain]
mean cluster size (BR16 CTC-derived cells): significant decrease in mean cluster size
frequency of single CTCs (BR16 xenografts): increasing the frequency
frequency of spontaneously-generated CTC clusters (BR16 xenografts): reduced the frequency
overall CTC numbers (BR16 xenografts): without altering
size of the primary tumor (BR16 xenografts): without altering
suppression of the total metastatic burden (BR16 xenografts): 80.7 fold
